Data as given in US20080248486A1, “Type Pept1 Protein Assay” (Iongate Biosciences GmbH, priority 2004, published 2008).

How the values were obtained:
[1] = tested on: peptide transporter; details: Meredith et al. 1998; cited from earlier work
[2] = Solubility of glibenclamide; type: physicochemical
[3] = target: T1, PepT1 (Homo sapiens, UniProt P46059); design: host or cells: oocytes; details: oocytes; cited from earlier work
T1 sequence (P46059 1-708): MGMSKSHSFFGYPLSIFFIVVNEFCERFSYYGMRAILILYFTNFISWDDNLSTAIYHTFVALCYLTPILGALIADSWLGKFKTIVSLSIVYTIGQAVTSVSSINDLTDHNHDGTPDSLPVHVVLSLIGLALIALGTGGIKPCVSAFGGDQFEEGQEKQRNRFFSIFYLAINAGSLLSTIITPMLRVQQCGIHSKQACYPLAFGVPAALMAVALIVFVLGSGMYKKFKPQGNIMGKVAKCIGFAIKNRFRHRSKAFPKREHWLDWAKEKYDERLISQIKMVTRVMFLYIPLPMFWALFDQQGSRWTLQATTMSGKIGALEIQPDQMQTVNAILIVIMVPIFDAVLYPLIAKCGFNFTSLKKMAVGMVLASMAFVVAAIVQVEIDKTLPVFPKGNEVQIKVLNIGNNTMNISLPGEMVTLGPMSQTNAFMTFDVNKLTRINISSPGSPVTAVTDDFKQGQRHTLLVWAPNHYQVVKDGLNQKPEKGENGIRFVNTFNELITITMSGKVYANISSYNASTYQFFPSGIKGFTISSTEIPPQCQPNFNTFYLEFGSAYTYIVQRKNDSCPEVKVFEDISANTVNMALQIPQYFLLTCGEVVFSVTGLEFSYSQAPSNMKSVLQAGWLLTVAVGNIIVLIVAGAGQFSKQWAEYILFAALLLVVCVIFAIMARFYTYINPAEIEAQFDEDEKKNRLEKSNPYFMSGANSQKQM

[4] = target: T1, PepT1; test: Activity measurement with glibenclamide on protein-loaded sensor chip (SurfE2R system), current amplitude on change from non-activating to activating solution; type: biochemical; design: expressed in transfected cells; host or cells: CHO cells (plasma membrane preparation); details: 100 μM glibenclamide in both activating and non-activating solution; CHO plasma membrane preparation on sensor chip; FIG. 1
Experimental: The measurements were carried out as above, although both solutions contained activating and non-activating solution and additionally 100 μM glibenclamide.

Solubility [2] | Effect on current amplitude (PepT1 transport current I(t)) [4] | Compound | Affinity to the transporter [1] | IC50 [3] [µM]
– | – | NCc1ccc(C(=O)O)cc1 [4-aminomethyl benzoic acid] | only a slight affinity | –
poor solubility | inhibition of the current amplitude | COc1ccc(Cl)cc1C(=O)NCCc1ccc(S(=O)(=O)NC(=O)NC2CCCCC2)cc1 [glibenclamide] | – | ~100
